From patent US20090142330A1, “Use of inactive-plasmin to treat chronic inflammatory disease and tumors” (The Government of the United States of America as …, priority 2007, published 2009) come the findings set out here.

Experiment [1] relates to MMP-1 production by monocytes. Description: MMP-1 protein in monocyte conditioned media, Western blot. In kind it is cell-based, human. The following applies: for effect on HMW-uPA enhancement of MMP-1 / effect on plasmin enhancement of MMP-1 / effect on LPS-induced MMP-1 production: monocytes preincubated 30 min with agent; for effect on HMW-uPA enhancement of MMP-1: then LPS plus HMW-uPA; for effect on plasmin enhancement of MMP-1: then LPS plus plasmin; for effect on LPS-induced MMP-1 production: then LPS. The text has this: Reagents. High molecular weight urokinase plasminogen activator (HMW-uPA), low molecular weight uPA (LMW-uPA), amino-terminal fragment-uPA (ATF-uPA) and α2-antiplasmin were obtained from American Diagnostica Inc. (Stamford, Conn.). […] LPS Escherichia coli 05:B55 was purchased from Sigma-Aldrich (St. Louis, Mo.). ERK1/2/phospho-ERK1/2 and p38/phospho-p38 antibodies were from Cell Signaling Technology (Beverly, Mass.). MMP-1 antibodies used were rabbit polyclonal antibodies against MMP-1 (provided by Dr. Henning Birkedal-Hansen, NIDCR/NIH) and a mouse anti-human MMP-1 monoclonal antibody (Chemicon International, Inc., Temecula, Calif.). Rabbit anti-COX-2 antibodies were obtained from Cayman Chemical Company (Ann Arbor, Mich.) and mouse anti-β-actin antibodies were from Chemicon International, Inc., Temecula, Calif.). Purification and culture of human monocytes. Human peripheral blood cells were obtained by leukapheresis of non-disease subjects. The monocyte fraction was purified by counter-flow centrifugal elutriation as previously described (Wahl et al., Cell Immunol. 85: 373-383, 1984; and Wahl et al., “In Current Protocols in Immunology,” eds. John Wiley & Sons, Inc. NY. Vol. 2: 7.6A.1-7.6A.10., 2005) and contained greater than 90% monocytes as determined by morphology and flow cytometry. Monocytes were cultured in serum-free Dulbecco Modified Eagle's Medium (DMEM; Cambrex, Walkersville, Md.) supplemented with 2 mM L-glutamine (Mediatech, Herndon, Va.) and 10 μg/ml gentamycin (Cambrex, Walkersville, Md.). Western blot analysis of MMP-1, MAPKs and COX-2. For MMP-1 determination, purified monocytes were cultured at a density of 5×10^6/ml of DMEM in 12 well polystyrene plates (Corning Incorporated Life Sciences, Lowell, Mass.). After 36 to 48 hours of treatment with reagents, the conditioned media were centrifuged and collected. Bovine serum albumin (BSA; 40 μg/ml) was added to the culture supernatants prior to the precipitation of the proteins with cold ethanol (final concentration, 60%) for at least 15 min at −70° C. The proteins were pelleted by microcentrifuging at 20,800×g for 12 min, washed with ethanol, and lyophilized by rotary evaporation. The lyophilized proteins were resuspended in sodium dodecyl sulfate (SDS)-Laemmli buffer [500 mM Tris-HCl (pH 6.8)/10% SDS/0.01% bromophenol-blue/20% glycerol], reduced with 5% β-mercaptoethanol, heated for 4 min at 100° C., and electrophoresed on a 10 or 12% Tris-glycine gel in SDS running buffer [25 mM Tris-HCl (pH 8.3)/192 mM glycine/[…]]. The proteins were transferred onto 0.45 μm nitrocellulose in a buffer containing 25 mM Tris-HCl (pH 8.3)/192 mM glycine/20% methanol and blocked with 50 mM Tris-HCl (pH 7.5)/150 mM NaCl (TBS) containing 5% nonfat dry milk for at least 1 hour. The blots were then incubated overnight with antibodies against MMP-1.
Western blots for MMP-1, MAPKs and COX-2 were incubated overnight with primary antibodies, washed and analyzed by the addition of Alexa Fluor 680 goat anti-rabbit or Alexa Fluor 750 goat anti-mouse antibodies (Molecular Probes® Inc., Eugene, Oreg.) and the infrared fluorescence detected with the Odyssey infrared imaging system (LI-COR, Lincoln, Nebr.). Densitometry analysis of the bands on the Western blots was determined with the LI-COR software analysis program or the ImageQuant software analysis program (Amersham Biosciences, Piscataway, N.J.).
(Immunoblotting shows a protein as a band on a membrane.)

Experiment [2] concerns the target T1, annexin A2 heterotetramer (annexin A2 p36 / S100A10 p11) on monocytes (Homo sapiens, UniProt P07355+P60903).
T1 construct: Purified human monocytes were fixed and permeablized; endogenous in cells; host or cells: purified human peripheral blood monocytes, fixed and permeabilized
Description: Binding of FITC-labeled plasmin to monocytes, flow cytometry. As to conditions: preincubation of monocytes 30 min with agent before plasmin-FITC. Here is the method: (§1) Plasmin activity assay. Plasmin activity was determined with the SPECTROZYME PL kit (American Diagnostica Inc., Stamford, Conn.) which utilizes the chromogenic substrate H-D-norleucyl-hexahydrotyrosol-lysine-para-nitroanilide diacetate. For detection of cell-associated plasmin activity, monocytes were cultured at 1×10^6/well in Hanks Balanced Solution containing calcium and magnesium (Hyclone, Logan, Utah) with the plasmin substrate. Kinetic absorbance readings were measured at 405 nm. RT-PCR. Total cellular RNA was extracted with the RNeasy Mini Kit (QIAGEN® Inc., Valencia, Calif.) 8 hours after stimulation of monocytes with LPS. Transcript levels of MMP-1 were determined using semiquantitative reverse transcriptase-polymerase chain reaction (RT-PCR) with GADPH as an internal control. […] The amplified DNA was separated by 1.7% agarose gel electrophoresis, stained with SYTO 60 red fluorescent nucleic acid stain (Molecular Probes®, Eugene, Oreg.), and the intensity of the stained bands was analyzed with an infrared imaging system. […] FITC-conjugated BSA, plasmin (2.5 μg in 10 μl) or anti-human antibodies (1-2.5 μg/10 μl) then were added, respectively, incubated for 30 min and washed and analyzed by the FACSCalibur system (Becton Dickinson Biosciences, Franklin Lakes, N.J.). […] Flow cytometry results were analyzed by CELLQuest software (Becton Dickinson Biosciences, Franklin Lakes, N.J.). […]
For orientation: A flow cytometer gives signals particle by particle.

Experiment [3] deals with T2, plasmin (Homo sapiens, UniProt P00747).
T2 construct: purchased Sigma-Aldrich
The experiment in a line: Cell free plasmin activity assay (SPECTROZYME PL). In kind it is biochemical. As to conditions: compared with plasmin alone, FIG. 6B. Here is the method:
as §1

The target of experiment [4] is T3, annexin A2 on monocytes (Homo sapiens, UniProt P07355).
T3 construct: Purified human monocytes were fixed and permeablized; endogenous in cells; host or cells: purified human peripheral blood monocytes, fixed and permeabilized
The experiment in a line: Binding of goat anti-human annexin A2 antibodies to monocytes, flow cytometry. The following applies: pre-treated with agent 30 minutes; FIG. 6D. As to the method: as §1

T3 sequence (P07355 whole entry): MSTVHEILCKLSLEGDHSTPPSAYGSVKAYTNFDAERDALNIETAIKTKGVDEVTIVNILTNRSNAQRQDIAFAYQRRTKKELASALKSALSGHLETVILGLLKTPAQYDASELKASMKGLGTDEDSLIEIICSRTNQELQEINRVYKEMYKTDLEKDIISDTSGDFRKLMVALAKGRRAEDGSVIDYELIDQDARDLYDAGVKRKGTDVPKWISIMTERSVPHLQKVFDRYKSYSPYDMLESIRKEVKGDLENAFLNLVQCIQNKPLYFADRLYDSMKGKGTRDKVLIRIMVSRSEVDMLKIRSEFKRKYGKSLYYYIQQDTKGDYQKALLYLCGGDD
T1 sequence (P07355 2-339 limits assumed): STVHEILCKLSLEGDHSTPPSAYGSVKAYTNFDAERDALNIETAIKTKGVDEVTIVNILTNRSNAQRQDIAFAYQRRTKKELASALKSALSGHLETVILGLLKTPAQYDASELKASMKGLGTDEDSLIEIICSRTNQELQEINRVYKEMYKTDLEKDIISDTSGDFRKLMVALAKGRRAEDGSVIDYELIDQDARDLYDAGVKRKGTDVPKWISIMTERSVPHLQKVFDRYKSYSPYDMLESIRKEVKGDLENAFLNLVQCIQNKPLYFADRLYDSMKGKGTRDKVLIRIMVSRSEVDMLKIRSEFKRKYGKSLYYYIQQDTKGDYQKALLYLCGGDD
T1 sequence (P60903 2-97 limits assumed): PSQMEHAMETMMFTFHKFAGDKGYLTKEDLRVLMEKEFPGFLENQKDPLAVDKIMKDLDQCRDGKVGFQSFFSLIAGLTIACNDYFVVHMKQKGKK

Consider `COc1cccc(-c2cc(=O)c3ccccc3o2)c1N` [PD98059], for which, in experiment [1], the “effect on HMW-uPA enhancement of MMP-1” value is “suppressed the enhancement” and the “effect on plasmin enhancement of MMP-1” value is reported as “suppressed the enhancement”.
On to `CCCCC[C@H](O)/C=C/[C@H]1[C@H](O)CC(=O)[C@@H]1C/C=C\CCCC(=O)O` [PGE2, prostaglandin-E2], for which the “restoration of MMP-1 after indomethacin inhibition” value in experiment [1] (PGE2 1 μM added to indomethacin-treated monocytes, FIG. 4C) was “restored, in part”.
Consider `C[S+]([O-])c1ccc(-c2nc(-c3ccncc3)c(-c3ccc(F)cc3)[nH]2)cc1` (stereo not shown) [SB203580], for which, in experiment [1], the “effect on HMW-uPA enhancement of MMP-1” value is on record as “suppressed the enhancement” and the “effect on plasmin enhancement of MMP-1” value is recorded as “suppressed the enhancement”.
Take `COc1ccc2c(c1)c(CC(=O)O)c(C)n2C(=O)c1ccc(Cl)cc1` [indomethacin]: in experiment [1], the “effect on LPS-induced MMP-1 production” value is given as “inhibited”, the “effect on HMW-uPA enhancement of MMP-1” value is “inhibited” and the “effect on plasmin enhancement of MMP-1” value is given as “inhibited”.

B1: inactive plasmin: plasmin in which the catalytic site had been irreversibly blocked with a peptide inhibitor; from Molecular Innovations, Inc. (protein)
chain: KVYLSECKTGNGKNYRGTMSKTKNGITCQKWSSTSPHRPRFSPATHPSEGLEENYCRNPDNDPQGPWCYTTDPEKRYDYCDILECEEECMHCSGENYDGKISKTMSGLECQAWDSQSPHAHGYIPSKFPNKNLKKNYCRNPDRELRPWCFTTDPNKRWELCDIPRCTTPPPSSGPTYQCLKGTGENYRGNVAVTVSGHTCQHWSAQTPHTHNRTPENFPCKNLDENYCRNPDGKRAPWCHTTNSQVRWEYCKIPSCDSSPVSTEQLAPTAPPELTPVVQDCYHGDGQSYRGTSSTTTTGKKCQSWSSMTPHRHQKTPENYPNAGLTMNYCRNPDADKGPWCFTTDPSVRWEYCNLKKCSGTEASVVAPPPVVLLPDVETPSEEDCMFGNGKGYRGKRATTVTGTPCQDWAAQEPHRHSIFTPETNPRAGLEKNYCRNPDGDVGGPWCYTTNPRKLYDYCDVPQCAAPSFDCGKPQVEPKKCPGRVVGGCVAHPHSWPWQVSLRTRFGMHFCGGTLISPEWVLTAAHCLEKSPRPSSYKVILGAHQEVNLEPHVQEIEVSRLFLEPTRKDIALLKLSSPAVITDKVIPACLPSPNYVVADRTECFITGWGETQGTFGAGLLKEAQLPVIENKVCNRYEFLNGRVQSTELCAGHLAGGTDSCQGDSGGPLVCFEKDKYILQGVTSWGLGCARPNKPGVYVRVSRFVTWIEGVMRNN
With B1, the “binding of FITC-labeled plasmin to monocytes” value in experiment [2] is “blocked the binding”. For the same molecule, the “plasmin activity of inactive plasmin combined with plasmin” value in experiment [3] is on record as “same activity as plasmin alone”. Moreover, the “binding of antibodies against annexin A2 to monocytes” value in experiment [4] is on record as “blocked the binding”. Also, in experiment [1], the “effect on LPS-induced MMP-1 production” value is recorded as “inhibited the production of MMP-1” and the “effect on plasmin enhancement of MMP-1” value was “inhibited the production of MMP-1”.
